Measurements as given in ChEMBL document CHEMBL5143519, “Exploring disordered loops in DprE1 provides a functional site to combat drug-resistance in Mycobacterium strains” (Eur J Med Chem, 2022).
≈ marks a conversion by molar mass, not a printed value. Calls of active or inactive are those of the source. No cut-off for these calls is given here.

Columns and labels:
[1] = biological target: T1, Decaprenylphosphoryl-beta-D-ribose oxidase (Mycobacterium tuberculosis (strain ATCC 25618 / H37Rv), UniProt P9WJF1); assay: Inhibition of Mycobacterium tuberculosis wild type DprE1 expressed in Escherichia coli BL21 DE3 assessed as formation of resorufin using FPR as substrate incubated for 10 mins by Amplex Red dye microplate assay
T1 sequence (P9WJF1 whole entry): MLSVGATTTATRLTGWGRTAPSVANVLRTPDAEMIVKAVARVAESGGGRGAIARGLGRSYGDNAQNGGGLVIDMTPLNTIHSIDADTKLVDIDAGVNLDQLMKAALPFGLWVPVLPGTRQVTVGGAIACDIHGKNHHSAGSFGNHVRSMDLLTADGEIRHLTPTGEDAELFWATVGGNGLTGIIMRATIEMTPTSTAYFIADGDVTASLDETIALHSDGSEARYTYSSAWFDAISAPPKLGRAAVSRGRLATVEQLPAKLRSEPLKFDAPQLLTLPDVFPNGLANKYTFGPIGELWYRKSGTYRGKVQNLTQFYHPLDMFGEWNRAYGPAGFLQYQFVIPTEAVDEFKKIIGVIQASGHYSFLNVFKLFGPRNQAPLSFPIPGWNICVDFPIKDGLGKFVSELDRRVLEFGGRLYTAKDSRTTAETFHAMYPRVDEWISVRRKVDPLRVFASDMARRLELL

[2] = tested on: Mycobacterium tuberculosis; assay: Antimycobacterial activity against Mycobacterium tuberculosis H37Rv assessed as inhibition of bacterial growth incubated for 7 days by microplate alamar blue assay; format: functional; details: 168 h, time 7 day
[3] = tested on: Mycolicibacterium smegmatis; assay: Antimycobacterial activity against Mycobacterium smegmatis mc2155 assessed as inhibition of bacterial growth incubated for 7 days by microplate alamar blue assay; format: functional; details: mc2155, 168 h, time 7 day
[4] = tested on: Mycobacterium tuberculosis; assay: Antimycobacterial activity against Mycobacterium tuberculosis H37Rv infected in mouse macrophage J774A.1 cell assessed as reduction in bacterial colony forming units incubated for 21 days; format: functional; details: time 21 day
[5] = tested on: Mycolicibacterium smegmatis; assay: Antimycobacterial activity against Mycobacterium smegmatis wild type DprE1 assessed as inhibition of bacterial growth incubated for 7 days by microplate alamar blue assay; format: functional; details: 168 h, time 7 day
[6] = tested on: Mycobacterium tuberculosis; assay: Antimycobacterial activity against Mycobacterium tuberculosis H37Rv assessed as reduction in bacterial colony forming units at 20 times MIC concentration measured after 21 days by time kill assay; format: functional; details: time 21 day
[7] = tested on: Mycobacterium tuberculosis; assay: Antimycobacterial activity against Mycobacterium tuberculosis H37Rv assessed as reduction in bacterial colony forming units at 20 times MIC concentration measured after 7 days by time kill assay; format: functional, organism-based; details: time 7.0 day

SMILES	IC50 [1] [µM]	MIC [2] [µM]	MIC [3] [µM]	Activity [4] [log10CFU]	MIC [5] [µM]	Activity [6] [log10CFU/ml]	Activity [7]
N#Cc1ccc(C(=O)Nc2sccc2C(=O)NC(=O)OCC2CC2)cc1	18.9	> 250					
CCOC(=O)NC(=O)c1ccsc1NC(=O)c1nc2ccccc2s1	0.053	1.68 (≈ 0.631 µg/mL)	33.2 (≈ 12.5 µg/mL)	0.6	0.23 (≈ 0.0863 µg/mL)	3	
CCOC(=O)NC(=O)c1ccsc1NC(=O)c1ccc(C#N)cn1	41.2	> 300					
CC(=O)c1ccc(C(=O)Nc2sccc2C(=O)NC(=O)OCC2CC2)cc1	1.21	51.8 (≈ 20 µg/mL)					
O=C(NC(=O)c1ccsc1NC(=O)c1nc2ccccc2s1)OCC1CCCC1	22.4	> 250					
CCOC(=O)NC(=O)c1ccsc1NC(=O)c1ccc(C(C)=O)cc1	36.4	> 300					
O=C(NC(=O)c1ccsc1NC(=O)c1nc2ccccc2s1)OCC1CCC1	0.098	3.01 (≈ 1.25 µg/mL)	24.1 (≈ 9.99 µg/mL)	0.9			
CCOC(=O)NC(=O)c1ccsc1NC(=O)c1nc2cnccc2s1					0.089 (≈ 0.0335 µg/mL)		
CCOC(=O)NC(=O)c1ccsc1NC(=O)c1ccc(C#N)cc1	> 64	> 300					
O=C(NC(=O)c1ccsc1NC(=O)c1nc2ccccc2s1)OCC1CCCCC1	> 64	> 250					
CCOC(=O)NC(=O)c1cc(F)sc1NC(=O)c1nc2ccccc2s1					0.046 (≈ 0.0181 µg/mL)		
CO[C@H]1/C=C/O[C@@]2(C)Oc3c(C)c(O)c4c(O)c(c(/C=N/N5CCN(C)CC5)c(O)c4c3C2=O)NC(=O)/C(C)=C\C=C\[C@H](C)[C@H](O)[C@@H](C)[C@@H](O)[C@@H](C)[C@H](OC(C)=O)[C@@H]1C [RIFAMPIN]		0.11 (≈ 0.0905 µg/mL)	0.35 (≈ 0.288 µg/mL)	1.1		3	
N#Cc1ccc(C(=O)Nc2sccc2C(=O)NC(=O)OCC2CC2)nc1	11.5	216 (≈ 79.8 µg/mL)					
O=C(NC(=O)c1ccsc1NC(=O)c1nc2ccccc2s1)OCC1CC1	0.01	0.77 (≈ 0.309 µg/mL)	12.4 (≈ 4.99 µg/mL)	1.1		3	Active
O=C(NC(=O)c1ccsc1NC(=O)c1nc2ccccc2s1)OC1CCC1	18.6	> 250					
